Measured values taken from BigSolDB 2.1.

## CC1=CC(=O)[N-]S(=O)(=O)O1.[K+]
In ethanol, 277.1 K
  solubility (mole fraction): 0.000123
In ethanol, 282.39 K
  solubility (mole fraction): 0.000154
In ethanol, 287.47 K
  solubility (mole fraction): 0.000176
In ethanol, 292.3 K
  solubility (mole fraction): 0.0002
In ethanol, 297.55 K
  solubility (mole fraction): 0.000226
In ethanol, 302.65 K
  solubility (mole fraction): 0.000259
In ethanol, 307.9 K
  solubility (mole fraction): 0.0003
In ethanol, 312.93 K
  solubility (mole fraction): 0.000396
In ethanol, 317.87 K
  solubility (mole fraction): 0.000496
In ethanol, 322.9 K
  solubility (mole fraction): 0.000634
In methanol, 277.7 K
  solubility (mole fraction): 0.000156
In methanol, 281.79 K
  solubility (mole fraction): 0.000173
In methanol, 286.1 K
  solubility (mole fraction): 0.000189
In methanol, 290.39 K
  solubility (mole fraction): 0.000205
In methanol, 294.2 K
  solubility (mole fraction): 0.000222
In methanol, 298.51 K
  solubility (mole fraction): 0.000238
In methanol, 302.21 K
  solubility (mole fraction): 0.000256
In methanol, 307.8 K
  solubility (mole fraction): 0.000288
In methanol, 311.39 K
  solubility (mole fraction): 0.000313
In methanol, 315.47 K
  solubility (mole fraction): 0.000341
In methanol, 319.3 K
  solubility (mole fraction): 0.000371
In methanol, 322.8 K
  solubility (mole fraction): 0.000401
In water, 277.98 K
  solubility (mole fraction): 0.000151
In water, 281.23 K
  solubility (mole fraction): 0.000167
In water, 284.73 K
  solubility (mole fraction): 0.000186
In water, 288.35 K
  solubility (mole fraction): 0.000207
In water, 294.9 K
  solubility (mole fraction): 0.000249
In water, 298.02 K
  solubility (mole fraction): 0.000271
In water, 301.03 K
  solubility (mole fraction): 0.000292
In water, 304.01 K
  solubility (mole fraction): 0.000314
In water, 307.07 K
  solubility (mole fraction): 0.000338
In water, 310.24 K
  solubility (mole fraction): 0.000363
In water, 313.53 K
  solubility (mole fraction): 0.00039
In water, 317.3 K
  solubility (mole fraction): 0.000419
In water, 322.3 K
  solubility (mole fraction): 0.000474
